Experiments:
Assay type in all cases: cell-based
[1] = tested on: endolysosomes in HeLa cells; assay: Dynamics of PyQPMe-stained endolysosomes (puncta counting)
Protocol: FIGS. 5A-5H depict the characterization of dynamics of PyQPMe-stained endolysosomes. FIG. 5A. Confocal images of HeLa cells stained with PyQPMe following treatment with or without Wortmannin for 24 h. FIG. 5B. Schematic illustration of the effect of Wortmannin which inhibits the conversion from early endosomes into late endosomes. FIG. 5C. Quantification of total endolysosomes and late endosomes/lysosomes in PyQPMe-stained HeLa cells with or without Wortmannin treatment. FIG. 5D. The ratio of the number of late endosomes/lysosomes to total endolysosomes in PyQPMe-stained HeLa cells treated with or without Wortmannin. FIG. 5E. Confocal images of HeLa cells stained with PyQPMe for 10 min and 60 min. FIG. 5F. The mean red puncta fluorescence intensity of PyQPMe-stained HeLa cells for 10 min and 60 min incubation. FIG. 5G. Quantification of total endolysosomes and late endosomes/lysosomes in PyQPMe-stained HeLa cells for 10 min and 60 min. FIG. 5H. The ratio of the number of late endosomes/lysosomes to total endolysosomes in PyQPMe-stained HeLa cells for 10 min and 60 min. Data are given as M±SEM (n=10 independent samples from 10 cells for each statistical analysis); the statistical differences were analyzed by Student's t-test, p<0.05 is considered to statistical significant (** p≤0.01; *** p≤0.001; **** p≤0.0001; ns p>0.05).
Because of the popularity of quantitative cell biology, it is important to design powerful tools that can digitize individual cells and subcellular organelles to elucidate biological problems in detail. With its great pH response, long-term photostability, and excellent signal-to-noise ratio for high-resolution imaging, PyQPMe was successfully used to track the dynamics of endolysosomes within cells by counting the number of puncta fluorescence signals in both green and red channels (FIG. 5A).
Next, the effects of different incubation time on the endocytic pathway were tested.
(§1) Leica Stellaris 8 Confocal imaging. High-resolution images were acquired on a commercial Leica Stellaris 8 Confocal Microscope under LIGHTNING mode. Laser powers were set at 10% intensity for 405 nm and 640 nm channels. The objective was 63×/1.4. High-resolution images were captured from the randomly selected field of view and analyzed with Leica LAS X and ImageJ software. All the images were exported on the Auto scale of the Leica LAS X software. Cells were seeded on glassed-bottomed cell dishes (MatTek) for 24 hours. Cells stained with PyQPMe (20 nM, 10 min) were treated with Wortmannin (1 μM, 24 h), CCCP ([…], 24 h), rapamycin (0.5 μM, 24 h), chloroquine (25 μM, 30 min), and NH4Cl (50 mM, 30 min). All PCC values were analyzed in the CellProfiler.

[2] = tested on: endolysosomes in HeLa cells; assay: Dual-channel confocal imaging of PyQPMe-stained endolysosomes, co-stained with LTDR
Protocol: Next, imaging studies of PyQPMe were performed under a dual channel mode with the same excitation of 405 nm (green channel, emission range of 470-530 nm; red channel, emission range of 610-680 nm). Due to the strong green emission properties of PyQPMe over a wide pH range, many puncta fluorescence appeared throughout the cell in the green channel image (FIG. 3A). While in the red channel image, there is less puncta fluorescence in the cell because PyQPMe only emits red light at pH values below 6. Therefore, this imaging property of PyQPMe at different channels can guide one to track different stages of endocytosis. Images were randomly zoomed in and their fluorescence intensity was compared. […] Further, the average diameter of PyQPMe red spots is around 0.6 μm, which is in line with the reported size of lysosomes. To further verify the targeting ability of PyQPMe, the cells were co-stained with commercial lysosome dye Lyso-Tracker Deep Red (LTDR) and imaged under a deep red channel (excitation of 640 nm, emission range of 690-740 nm).
as §1

HeLa cells [3] = assay: Photobleaching comparison of LTR and PyQPMe; settings: 100% laser power, after 40 s of scans; % of original value
Excerpt: FIGS. 4A-4G depict the characterization of imaging properties of PyQPMe-stained endolysosomes. FIG. 4A. Confocal image of PyQPMe-stained endolysosomes and fluorescence intensity profile (FIG. 4B) of the write line in FIG. 4A. FIG. 4C. Confocal image of PyQPMe-stained late endosomes/lysosomes and fluorescence intensity profile (FIG. 4D) of the write line in FIG. 4C. FIG. 4E. Confocal images of HeLa cells labeled with LTR and PyQPMe and 3D fluorescence intensity plots of rectangles of integration. FIG. 4F. Continuous imaging of HeLa cells labeled with LTR or PyQPMe at 100% laser intensity for photobleaching, and each scan time was 10 s, images were captured under a red channel. FIG. 4G. Normalized fluorescence intensity of LTR and PyQPMe in FIG. 4F.
Resistance to photobleaching is a crucial property of probes that determines whether they can be used for long-term fluorescence tracking. To characterize this property, a photobleaching comparison study between LTR and PyQPMe was done in HeLa cells (FIG. 4F).
Leica Stellaris 8 Confocal imaging. High-resolution images were acquired on a commercial Leica Stellaris 8 Confocal Microscope under LIGHTNING mode. Laser powers were set at 10% intensity for 405 nm and 640 nm channels. […] High-resolution images were captured from the randomly selected field of view and analyzed with Leica LAS X and ImageJ software. […] All PCC values were analyzed in the CellProfiler.

[4] = tested on: endolysosomes in HeLa cells; assay: Resolution limit in LIGHTNING confocal images
Excerpt: The fluorescence images of PyQPMe were compared before and after the LIGHTNING module. […] To test the resolution limit of PyQPMe, confocal images were stochastically selected, and underlined the areas with luminescence in the images (FIG. 4A, 4C). The FWHMs (full width at half maximum) of these bright puncta fluorescence of PyQPMe-stained endolysosomes and later endosomes/lysosomes are down to 174 nm and 184 nm (FIG. 4B, 4D), respectively.
as §1

HeLa cells [5] = assay: Background fluorescence / signal-to-noise comparison with LysoTracker Red; settings: compared with LTR, same imaging conditions
Excerpt: Since PyQPMe has a large Stokes shift and strong fluorescence intensity, it can effectively reduce the background noise caused by excitation light and microenvironments. To illustrate this merit, the commercial lysosome dye (LysoTracker Red, LTR) was selected for comparison. Two different regions of the background were randomly chosen in each fluorescence image and plotted their 3D fluorescence intensity distribution maps, as shown in FIG. 4E.
as §1

Compound: CN1CCN(c2ccc(/C=C/c3ccc4cc(-c5ccncc5)ccc4[n+]3C)cc2)CC1 [PyQPMe, (E)-1-methyl-2-(4-(4-methylpiperazin-1-yl)styryl)-6-(pyridin-4-yl)quinolin-1-ium]
- intensity of puncta fluorescence in red channel ([1]; 60 min vs 10 min incubation): increased during 60 min incubation
- number of total endolysosomes and late endosomes/lysosomes detected ([1]; 60 min vs 10 min incubation): more PyQPMe-stained total endolysosomes and late endosomes/lysosomes were simultaneously detected
- percentage of late endosomes/lysosomes in total endolysosomes ([1]; regardless of incubation time (10 min, 60 min)): remained stable
- ratio of red to green fluorescence intensity, early endosomes ([2]; ex 405 nm, early endosomes): very low ratio of red to green fluorescence intensity
- ratio of red to green fluorescence intensity, late endosomes/lysosomes ([2]; ex 405 nm, late endosomes/lysosomes): higher than 1
- PCC with LTDR, green channel ([2]; green channel particles vs deep red channel of LTDR): 0.46
- average diameter of red spots ([2]; red channel): around 0.6 μm
- Pearson correlation coefficient (PCC) with LTDR, red channel ([2]; red channel puncta vs deep red channel of LTDR): about 0.70
- pH below which red light is emitted ([2]; red channel, 610-680 nm): below 6
- fluorescence signal remaining after photobleaching (HeLa cells [3]): 22%
- FWHM of puncta, endolysosomes ([4]; PyQPMe-stained endolysosomes): 174 nm
- FWHM of puncta, late endosomes/lysosomes ([4]; PyQPMe-stained late endosomes/lysosomes): 184 nm
- background fluorescence of confocal images (HeLa cells [5]): significantly reduced
- signal-to-noise ratio (HeLa cells [5]): better than that of LTR

Reference: patent US20260318831A1 (University of Cincinnati, priority 2023, published 2026)
